Laboratory results published in patent publication US9060515B2, “Heterocyclic urea compounds” (BIOTA EUROPE LTD, priority 2011, dated 2015).
In brackets after ≈: the same amount, converted by molar mass.

How the values were obtained:
S. pyogenes (ATCC 51339) = assay: Antibacterial susceptibility testing (MIC, broth microdilution or agar dilution), S. pyogenes; type: cell-based; settings: Streptococcus pyogenes, ATCC51339; read-out: S. pyogenes (ATCC 51339) minimal inhibitory concentration (MIC)
Protocol: (§1) Compounds of the invention were tested for antimicrobial activity by susceptibility testing in liquid or on solid media. MICs for compounds against each strain were determined by the broth microdilution or agar dilution method according to the guidelines of the Clinical Laboratories and Standards Institute, formerly the National Committee for Clinical Laboratory Standards (Clinical Laboratories and Standards Institute. Methods for Dilution Antimicrobial Susceptibility Tests for Bacteria That Grow Aerobically; Approved Standard—Seventh Edition. Document M7-A7. CLSI, Wayne, Pa., 2006; Clinical Laboratories and Standards Institute. The Gram positive bacterial strains tested include S. aureus (Staphylococcus aureus (Isolate ID ATCC 29213)), E. faecalis (Enterococcus faecalis (Isolate ID ATCC 29212)) and S. pyogenes (Streptococcus pyogenes (Isolate ID ATCC 51339)). The Gram negative bacterial strains tested include H. influenzae (Haemophilus influenzae (Isolate ID ATCC 49247)).

S. aureus (ATCC 29213) = assay: Antibacterial susceptibility testing (MIC, broth microdilution or agar dilution), S. aureus; type: cell-based; settings: Staphylococcus aureus, ATCC29213; read-out: S. aureus (ATCC 29213) minimal inhibitory concentration (MIC)
Protocol: as §1

MIC (S. pyogenes (ATCC 51339)) [µg/mL]	MIC (S. aureus (ATCC 29213)) [µg/mL]	SMILES
4 (≈ 10.3 µM)	2 (≈ 5.14 µM)	CCNC(=O)Nc1cc(Nc2ccccc2)c(C(=O)Nc2ccc(C)cc2)cn1 [Compound 46, 6-(3-ethylureido)-4-(phenylamino)-N-p-tolylnicotinamide]
32 (≈ 72.2 µM)	4 (≈ 9.02 µM)	CCNC(=O)Nc1cc(Nc2ccccc2)c(C(=O)Nc2ccc(C(F)(F)F)cc2)cn1 [Compound 47, 6-(3-ethylureido)-4-(phenylamino)-N-(4-(trifluoromethyl)phenyl)nicotinamide]
8 (≈ 18 µM)	≤ 1	CCNC(=O)Nc1cc(Nc2ccccc2)c(C(=O)Nc2cccc(C(F)(F)F)c2)cn1 [Compound 48, 6-(3-ethylureido)-4-(phenylamino)-N-(3-(trifluoromethyl)phenyl)nicotinamide]
2 (≈ 5.12 µM)	32 (≈ 82 µM)	CCNC(=O)Nc1cc(Nc2ccccc2)c(C(=O)NCc2ccncc2)cn1 [Compound 51, 6-(3-ethylureido)-4-(phenylamino)-N-(pyridin-4-ylmethyl)nicotinamide]
8 (≈ 20.5 µM)	32 (≈ 82 µM)	CCNC(=O)Nc1cc(Nc2ccccc2)c(C(=O)NCc2ccccn2)cn1 [Compound 52, 6-(3-ethylureido)-4-(phenylamino)-N-(pyridin-2-ylmethyl)nicotinamide]
4 (≈ 10.2 µM)	≤ 1	CCNC(=O)Nc1cc(Nc2ccccc2)c(C(=O)Nc2ccc(F)cc2)cn1 [Compound 55, 6-(3-ethylureido)-N-(4-fluorophenyl)-4-(phenylamino)nicotinamide]
2 (≈ 5.08 µM)	≤ 1	CCNC(=O)Nc1cc(Nc2ccccc2)c(C(=O)Nc2cccc(F)c2)cn1 [Compound 56, 6-(3-ethylureido)-N-(3-fluorophenyl)-4-(phenylamino)nicotinamide]
2 (≈ 5.27 µM)	8 (≈ 21.1 µM)	CCNC(=O)Nc1cc(Nc2ccccc2)c(C(=O)Nc2ccn(C)n2)cn1 [Compound 59, 6-(3-ethylureido)-N-(1-methyl-1H-pyrazol-3-yl)-4-(phenylamino)nicotinamide]
≤ 1	4 (≈ 10.6 µM)	CCNC(=O)Nc1cc(Nc2ccccc2)c(C(=O)Nc2cncnc2)cn1 [Compound 60, 6-(3-ethylureido)-4-(phenylamino)-N-(pyrimidin-5-yl)nicotinamide]
16 (≈ 53.5 µM)	32 (≈ 107 µM)	CCNC(=O)Nc1cc(Nc2ccccc2)c(C(N)=O)cn1 [Compound 61, 6-(3-Ethylureido)-4-(phenylamino)nicotinamide]
≤ 1	≤ 1	CCNC(=O)Nc1cc(Nc2ccccc2)c(C(=O)Nc2ccc(OC)nc2)cn1 [Compound 63, 6-(3-ethylureido)-N-(6-methoxypyridin-3-yl)-4-(phenylamino)nicotinamide]
≤ 1	2 (≈ 5.27 µM)	CCNC(=O)Nc1cc(Nc2ccccc2)c(C(=O)Nc2cnn(C)c2)cn1 [Compound 65, 6-(3-ethylureido)-N-(1-methyl-1H-pyrazol-4-yl)-4-(phenylamino)nicotinamide]
4 (≈ 9.72 µM)	≤ 1	CCNC(=O)Nc1cc(Nc2ccccc2)c(C(=O)Nc2cc(F)cc(F)c2)cn1 [Compound 66, N-(3,5-difluorophenyl)-6-(3-ethylureido)-4-(phenylamino)nicotinamide]
4 (≈ 9.72 µM)	≤ 1	CCNC(=O)Nc1cc(Nc2ccccc2)c(C(=O)Nc2ccc(F)c(F)c2)cn1 [Compound 69, N-(3,4-difluorophenyl)-6-(3-ethylureido)-4-(phenylamino)nicotinamide]
≤ 1	2 (≈ 4.81 µM)	CCNC(=O)Nc1cc(Nc2ccccc2)c(C(=O)Nc2ccc3nccn3c2)cn1 [Compound 76, 6-(3-ethylureido)-N-(imidazo[1,2-a]pyridin-6-yl)-4-(phenylamino)nicotinamide]
≤ 1	≤ 1	CCNC(=O)Nc1cc(Nc2ccccc2)c(C(=O)Nc2cncc(OC)c2)cn1 [Compound 79, 6-(3-ethylureido)-N-(5-methoxypyridin-3-yl)-4-(phenylamino)nicotinamide]
